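Compound exposure: 48 hours, 5 concentrations, 96-well plates. GI50 marks 50% less growth.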 Activity calls are given as the source filed them. Cut-off read from the data, not from the text of the source: active = GI50 up to about 1.1 µM and inactive = higher.
Experiments:
Assay in all cases: DTP human tumour cell line panel, 48 h
HCC 2998 = test system: HCC 2998
RPMI-8226 = test system: RPMI-8226
NCI-H23 = test system: NCI-H23
OVCAR-8 = test system: OVCAR-8
HOP-92 = test system: HOP-92
SF-295 = test system: SF-295
Malme-3M = test system: Malme-3M
A498 = test system: A498
SK-MEL-28 = test system: SK-MEL-28
HOP-62 = test system: HOP-62
MOLT-4 = test system: MOLT-4
OVCAR-4 = test system: OVCAR-4
TK-10 = test system: TK-10
SF-539 = test system: SF-539
LOX IMVI = test system: LOX IMVI
SK-OV-3 = test system: SK-OV-3
SN12C = test system: SN12C

Measured: GI50

CC1CCCc2c(CC3CC(=O)NC(=O)C3)n[nH]c21 (stereo not drawn)
inactive: HCC 2998 > 100 µM | RPMI-8226 > 100 µM | NCI-H23 > 100 µM | OVCAR-8 > 100 µM | HOP-92 > 100 µM | SF-295 > 100 µM | Malme-3M > 100 µM | A498 > 100 µM | SK-MEL-28 > 100 µM | HOP-62 > 100 µM | MOLT-4 > 100 µM | OVCAR-4 > 100 µM | TK-10 > 100 µM | SF-539 > 100 µM | LOX IMVI > 100 µM | SK-OV-3 > 100 µM | SN12C > 100 µM

O=C1OC(c2ccccc2)=N/C1=C/NC(CS)C(=O)O (stereo not drawn)
inactive: HCC 2998 > 100 µM | RPMI-8226 > 100 µM | NCI-H23 > 100 µM | OVCAR-8 > 100 µM | HOP-92 > 100 µM | SF-295 > 100 µM | Malme-3M > 100 µM | A498 > 100 µM | SK-MEL-28 > 100 µM | HOP-62 > 100 µM | MOLT-4 > 100 µM | OVCAR-4 > 100 µM | TK-10 > 100 µM | SF-539 > 100 µM | LOX IMVI > 100 µM | SK-OV-3 > 100 µM | SN12C > 100 µM

CCCCCNC(=O)CCCCCCCCCCCNC(=O)CCCCCCCCCCN1C=CC(=CC=C2C=CC(=O)C=C2)C=C1
inactive: HCC 2998 32.7 µM | RPMI-8226 8.99 µM | NCI-H23 28.2 µM | OVCAR-8 55.7 µM | HOP-92 14.7 µM | SF-295 71.4 µM | Malme-3M 34.9 µM | A498 > 100 µM | SK-MEL-28 > 100 µM | HOP-62 64.6 µM | MOLT-4 29 µM | OVCAR-4 65 µM | TK-10 > 10 µM | SF-539 30.3 µM | LOX IMVI 34.8 µM | SK-OV-3 > 100 µM | SN12C 39.4 µM

O=C1C(c2ccccc2)=C(O)c2cccc3cccc1c23
inactive: HCC 2998 > 100 µM | RPMI-8226 > 100 µM | NCI-H23 > 100 µM | OVCAR-8 > 100 µM | HOP-92 29 µM | SF-295 > 100 µM | Malme-3M > 100 µM | A498 > 100 µM | SK-MEL-28 > 100 µM | MOLT-4 > 100 µM | OVCAR-4 > 100 µM | TK-10 > 100 µM | SF-539 > 100 µM | LOX IMVI > 100 µM | SK-OV-3 > 100 µM | SN12C > 100 µM

COC(=O)C1=CC2C(=O)OC1CC2C#N (stereo not drawn)
inactive: HCC 2998 > 100 µM | RPMI-8226 > 100 µM | NCI-H23 > 100 µM | OVCAR-8 > 100 µM | HOP-92 > 100 µM | SF-295 > 100 µM | Malme-3M > 100 µM | A498 > 100 µM | SK-MEL-28 > 100 µM | HOP-62 > 100 µM | MOLT-4 > 100 µM | OVCAR-4 > 100 µM | TK-10 > 100 µM | SF-539 > 100 µM | LOX IMVI > 100 µM | SK-OV-3 > 100 µM | SN12C > 100 µM

O=C(O)Cc1ccccc1CCc1ccccc1Cl
inactive: HCC 2998 > 100 µM | RPMI-8226 > 100 µM | NCI-H23 > 100 µM | OVCAR-8 > 100 µM | HOP-92 > 100 µM | SF-295 > 100 µM | Malme-3M > 100 µM | A498 > 100 µM | SK-MEL-28 > 100 µM | MOLT-4 > 100 µM | OVCAR-4 > 100 µM | TK-10 > 100 µM | SF-539 > 100 µM | LOX IMVI > 100 µM | SK-OV-3 > 100 µM | SN12C > 100 µM

c1cncc(C2c3[nH]c4ccccc4c3CCN2CCCN2CCCCC2)c1 (stereo not drawn)
inactive: HCC 2998 > 100 µM | RPMI-8226 > 100 µM | NCI-H23 > 100 µM | OVCAR-8 > 100 µM | HOP-92 > 100 µM | SF-295 > 100 µM | Malme-3M 29.7 µM | A498 > 100 µM | SK-MEL-28 20.3 µM | HOP-62 > 100 µM | MOLT-4 > 100 µM | OVCAR-4 > 100 µM | TK-10 > 100 µM | SF-539 > 100 µM | LOX IMVI > 100 µM | SK-OV-3 > 100 µM | SN12C > 100 µM

C=C1C2CC(OC(C)=O)C3(C)C(c4ccoc4)OC(=O)[C@@H](O)[C@]13OC1C[C@H](OC(C)=O)C(C)(C)[C@H](CC(=O)OC)[C@]12C (stereo partly drawn)
inactive: HCC 2998 > 100 µM | RPMI-8226 > 100 µM | NCI-H23 > 100 µM | OVCAR-8 > 100 µM | HOP-92 30.3 µM | SF-295 > 100 µM | A498 > 100 µM | SK-MEL-28 > 100 µM | MOLT-4 70.6 µM | OVCAR-4 93.5 µM | TK-10 > 100 µM | SF-539 > 100 µM | LOX IMVI > 100 µM | SK-OV-3 > 100 µM | SN12C > 100 µM

N#C/C(=C\c1ccc(O)c(O)c1)C(N)=O
inactive: HCC 2998 53.1 µM | RPMI-8226 15.5 µM | NCI-H23 34 µM | OVCAR-8 43.4 µM | HOP-92 49.9 µM | SF-295 39.1 µM | Malme-3M 50.6 µM | A498 > 100 µM | SK-MEL-28 41 µM | HOP-62 51.2 µM | MOLT-4 12.5 µM | OVCAR-4 67.1 µM | TK-10 77.6 µM | SF-539 30.5 µM | SK-OV-3 71.4 µM | SN12C 39.2 µM

From ChEMBL document CHEMBL1201862, “PubChem BioAssay data set” (2004)
